Test results as given in EP0060659A1, “Pharmaceutical composition for tumour treatment and process for preparing it” (NATIONAL FOUNDATION FOR CANCER RESEARCH, INC., priority 1981, dated 1982).
Several values for one entry are separate records, joined by “and”; a condition that tells them apart may be missing. Equal entries are not always repeated.

Key:
tumour cells = details: cited from earlier work
Ehrlich ascites cells = experiment: Ehrlich ascites tumour in mice, test substance in drinking water (Example 2); assay type: in vivo, adult female white Swiss mice; design: average weight of the tumours / weight of the excised tissues (tumour): unit not given here
Method: 30 adult female white Swiss mice were inoculated behind the right foreleg on the ventral side with about 5 x 10^6 Ehrlich ascites cells in 0.2 ml of physiological saline. The mice were randomized and divided into three groups, each group containing 10 animals. All animals received water to drink during days 1 and 2. On day 3, the water of one group (Group B) was replaced by a 0.05 molar solution of glyoxal whilst the water of another group (Group C) was replaced by a 0.05 molar solution of a glyoxal-cysteine adduct prepared essentially as described in Example 1. The third, or control, group (Group A) continued to receive water. All groups could drink ad libidum.
No weight loss was observed.
All animals were narcotized and their tumours excised and cleaned from the surrounding tissues.
In the cases where the tumour which developed was slightly ascitic, the fluid was not weighed and this is believed to account for the rather lower weight of these tumours.

Compound: CC(O)C=CC=O (stereo not drawn) [4-hydroxypentenal]
- toxicity to cells of normal tissues (tumour cells): only slightly toxic

Compound: O=CC=O [glyoxal]
- toxic symptoms or loss of weight (Ehrlich ascites cells; after 7 days, 0.05 molar solution as drinking water): no toxic symptoms or loss of weight
- size or form of the tumour on visual inspection (Ehrlich ascites cells; after 7 days, compared with control group): No significant decrease
- inhibition over the control (Ehrlich ascites cells; from average tumour weights, 0.05 molar solution as drinking water): about 18%
- average weight of the tumours (Ehrlich ascites cells; group of 10 mice, 0.05 molar solution as drinking water from day 3, control group average 1200): 985
- weight of the excised tissues (tumour) (Ehrlich ascites cells; individual animals, 0.05 molar solution as drinking water from day 3, ad libitum, excised after 7 days, * = slightly ascitic tumour, fluid not weighed): 800 and 530 and 190 and 90* and 1270 and 330 and 1220 and 1700 and 2740 and 980
